From patent US20220213092A1, “BICYCLIC PYRAZOLE BRUTON'S TYROSINE KINASE INHIBITORS” (AbbVie Inc., priority 2020, published 2022)

Assays:
[1] = target: T1, Phosphorylation of Y223 of BTK (Homo sapiens, UniProt Q06187); experiment: Whole blood compound screening, phosphorylation of Y223 site of BTK (MSD assay); assay type: cell-based; conditions: healthy human whole blood, 2 hours at 37° C., 3 separate donors; read-out: WB BTK-pY223 EC50
T1 construct: host or cells: healthy human whole blood, 3 donors
T1 sequence (Q06187 whole entry): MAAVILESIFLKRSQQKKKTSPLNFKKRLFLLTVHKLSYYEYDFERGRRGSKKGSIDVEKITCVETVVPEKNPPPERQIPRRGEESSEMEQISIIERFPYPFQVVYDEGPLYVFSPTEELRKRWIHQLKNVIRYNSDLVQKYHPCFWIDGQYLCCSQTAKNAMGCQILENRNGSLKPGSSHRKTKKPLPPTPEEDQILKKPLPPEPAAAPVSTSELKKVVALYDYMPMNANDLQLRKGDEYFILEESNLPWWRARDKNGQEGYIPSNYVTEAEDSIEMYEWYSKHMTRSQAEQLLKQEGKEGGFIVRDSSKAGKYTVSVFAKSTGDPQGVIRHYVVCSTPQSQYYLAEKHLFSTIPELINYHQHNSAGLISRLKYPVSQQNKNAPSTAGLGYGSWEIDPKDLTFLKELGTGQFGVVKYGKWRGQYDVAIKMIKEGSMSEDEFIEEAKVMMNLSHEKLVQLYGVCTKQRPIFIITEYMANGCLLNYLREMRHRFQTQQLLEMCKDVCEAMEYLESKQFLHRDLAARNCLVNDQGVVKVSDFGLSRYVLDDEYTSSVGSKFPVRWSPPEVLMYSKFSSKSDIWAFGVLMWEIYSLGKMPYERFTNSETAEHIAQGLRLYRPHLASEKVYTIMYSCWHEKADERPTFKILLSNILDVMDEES
Outline: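 Heparinized human whole blood from 3 donors treated 2 h at 37 °C with compounds (8 points, top 10 μM, 1:4 dilution, 0.2% DMSO), then lysed. BTK pY223 quantified by MSD sandwich immunoassay (anti-BTK capture, anti-pY223 detection); EC50 from concentration response.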

BLK = BLK (Homo sapiens, UniProt P51451); experiment: Other kinase MSA: BLK; assay type: biochemical
Sequence of BLK (P51451 whole entry, species assumed): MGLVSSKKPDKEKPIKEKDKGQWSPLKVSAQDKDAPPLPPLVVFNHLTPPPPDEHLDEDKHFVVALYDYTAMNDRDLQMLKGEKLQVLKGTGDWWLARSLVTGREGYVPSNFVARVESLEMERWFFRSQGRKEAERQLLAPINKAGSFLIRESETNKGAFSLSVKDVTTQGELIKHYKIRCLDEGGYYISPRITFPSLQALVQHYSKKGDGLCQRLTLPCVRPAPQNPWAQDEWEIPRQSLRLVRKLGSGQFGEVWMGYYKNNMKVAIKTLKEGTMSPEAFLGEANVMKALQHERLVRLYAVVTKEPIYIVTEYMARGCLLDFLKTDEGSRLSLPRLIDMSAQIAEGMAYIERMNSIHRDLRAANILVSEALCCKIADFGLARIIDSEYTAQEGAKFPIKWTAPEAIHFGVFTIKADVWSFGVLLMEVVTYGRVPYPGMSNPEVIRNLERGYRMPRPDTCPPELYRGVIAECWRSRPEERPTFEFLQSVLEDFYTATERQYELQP
Description: Kinase activity, unless otherwise indicated, was measured in vitro using an electrophoretic mobility shift assay (MSA). The phosphorylation of a peptide substrate by BTK and other kinases was measured. The kinase reactions were assembled in a total volume of 25 μL per well in 384 well plates. The following was added to each well: compound buffer (or control); enzyme buffer; and substrate buffer, as further described below.
Enzyme and compound/inhibitor were optionally pre-incubated. To each well was added: 8 μL of 2.5×ATP and substrate in 1× Master Buffer (1× Master Buffer as described above). The plate was incubated at room temperature for 3 hours. […] OG488 was Oregon Green dye, which was conjugated to the peptide substrate. […] The kinase activity for the kinases in Table 3 were measured at 3 hours incubation time, except that in the case of MAP2K1 and MAP2K2 assay, pre-activation of ERK was done for 30 min with 6 μM of ATP, and then the detection of activated ERK in the presence of compounds was done after 60 minutes of incubation.
The terminated reactions were analyzed using a 12 channel LABCHIP® 3000 microfluidic detection instrument (available from Caliper Life Sciences, Waltham, Mass.). […] Change in the relative fluorescence intensity of the substrate and product peaks was the parameter measured, reflecting enzyme activity. […]

- EC50 [1]: 24.1 nM
- IC50 (BLK): 137 nM
Compound: C=CC(=O)N1CCN([C@@H]2CCNc3c2nn(-c2ccc(Oc4ccccc4)cc2)c3C(N)=O)CC1 [Example 6, (7R)-2-(4-phenoxyphenyl)-7-[4-(prop-2-enoyl)piperazin-1-yl]-4,5,6,7-tetrahydro-2H-pyrazolo[4,3-b]pyridine-3-carboxamide]
